Laboratory results from patent publication US6323240A, “4-phenyl-4-oxo-butanoic acid derivatives with kynurenine-3-hydroxylase inhibiting activity” (Pharmacia & Upjohn S.p.A., priority 1995, dated 2001).
pIC50: −log10 of the molar value.

Tests used:
kynurenine-3-hydroxylase [1] = target: T1, kynurenine-3-hydroxylase (Rattus norvegicus, UniProt O88867); assay: Kynurenine-3-hydroxylase assay in the rat liver (radiometric, tritiated water release, rat liver mitochondrial extract); type: biochemical; set-up: Rat liver mitochondrial extract was used as enzymatic preparation for this assay; from tissue; host or cells: rat liver mitochondrial extract; details: 0.025 mM L-kynurenine, pH 8.1, 37° C., 30 min
T1 sequence (O88867 whole entry): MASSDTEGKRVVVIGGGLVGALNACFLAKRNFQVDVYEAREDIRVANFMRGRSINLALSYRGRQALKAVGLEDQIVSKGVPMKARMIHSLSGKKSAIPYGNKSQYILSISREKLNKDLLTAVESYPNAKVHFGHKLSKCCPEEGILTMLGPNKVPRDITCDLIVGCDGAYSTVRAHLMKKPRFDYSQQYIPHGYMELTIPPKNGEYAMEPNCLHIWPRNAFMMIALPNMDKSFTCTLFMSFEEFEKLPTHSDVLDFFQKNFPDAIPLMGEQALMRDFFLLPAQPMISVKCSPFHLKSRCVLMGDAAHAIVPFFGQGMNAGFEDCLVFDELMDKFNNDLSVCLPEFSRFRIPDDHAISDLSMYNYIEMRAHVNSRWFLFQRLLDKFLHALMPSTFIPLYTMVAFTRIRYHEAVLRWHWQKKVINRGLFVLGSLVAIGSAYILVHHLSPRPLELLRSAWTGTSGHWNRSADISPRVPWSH
Procedure: Kynurenine-3-hydroxylase Assay in the Rat Liver
The assay for kynurenine 3-hydroxylase was based on the enzymatic synthesis of tritiated water during the hydroxylation reaction. Radiolabeled water was quantified following selective adsorption of the isotopic substrate and its metabolite with activated charcoal.
Rat liver mitochondrial extract was used as enzymatic preparation for this assay.
The assay for kynurenine 3-hydroxylase activity was carried out at 37° C. for a time of 30 min. The reaction mixture of a total volume of […] was constituted of […] of suspended extract, 100 mM Tris/Cl^- buffer pH 8.1, 10 mM EDTA, 100 mM Kcl, 0.8 mM NADPH, 0.025 mM L-kynurenine, […] L-(3,5-^3 H)Kynurenine (10 Ci/mmol) and […] of different concentration of inhibitor solutions. After the incubation the reaction was terminated by the addition of 1 mL of 7.5% (w/v) activated charcoal, vortexed and centrifugated for 7 min.
A […] aliquot of supernatant was counted by scintillation spectroscopy in 5 ml of liquid scintillation.

kynurenine-3-hydroxylase [2] = target: T1, kynurenine-3-hydroxylase; assay: Kynurenine-3-hydroxylase assay in the rat brain (conversion of L-kynurenine to L-3-hydroxykynurenine, HPLC with coulometric detection); type: biochemical; details: rat brain homogenate; 50 μM L-kynurenine; pH 7.5; 60 min
Procedure: Kynurenine-3-hydroxylase Assay in the Rat Brain
Brain was homogenized in ice-cold 0.32 M sucrose and centrifuged at 12000×g for 30 min at 4° C. The pellet was washed three times with 0.32 M sucrose by centrifugation and suspended in 0.14 M KCl in 20 mM K-phosphate buffer at pH 7 (1 g tissue in 2 ml buffer).
The reaction mixture contained: 75 μl of suspended homogenate; 100 μl of substrate solution containing 50 mM K-phosphate buffer pH 7.5, 2 mM MgCl2, 0.4 mM NADPH, 50 μM L-kynurenine (final concentration), and 25 μl of different concentrations of inhibitor solutions. The reaction was stopped by addition of 200 μl of 1 M HClO4 after 60 min incubation. L-3-hydroxykynurenine formed was quantified by HPLC with coulometric detection at a working voltage of +0.2 V. The column was a 10 cm C18 reversed phase (3 μm. The mobile phase consisted of 950 ml distilled water, 20 ml acetonitrile, 9 ml triethylamine, 5.9 ml phosphoric acid, 100 mg sodium EDTA and 1.5 g heptanesulfonic acid. The flow rate was 1 ml/min.

[3] = tested on: ionotropic excitatory aminoacid receptors; details: preferentially acting at the glycine co-agonist site of the NMDA receptor; cited from earlier work
[4] = tested on: excitotoxic neuronal damage evoked by QUIN; details: co-injected with QUIN; cited from earlier work
CNS = details: cited from earlier work
neuronal cell cultures = details: relatively low concentrations; prolonged period of time or in combination with glutamate; cited from earlier work
[5] = tested on: N-methyl-D-aspartate (NMDA) receptor; details: cited from earlier work

Row | Compound | pIC50 (kynurenine-3-hydroxylase [1]) | pIC50 (kynurenine-3-hydroxylase [2]) | also measured
1 | O=C(O)CCC(=O)c1ccc(Cl)c(Cl)c1 [PNU 156588, 4-(3',4'-dichlorophenyl)-4-oxo-butanoic acid] | 5.41 | 6.05 | 
2 | O=C(CC(Cl)C(=O)O)c1ccc(Cl)c(Cl)c1 (racemic) [PNU 158781, (R,S)-2-chloro-4-(3',4'-dichlorophenyl)-4-oxo-butanoic acid] | 4.88 |  | 
3 | COC(=O)C(O)CC(=O)c1ccc(Cl)c(Cl)c1 (racemic) [PNU 161211, Methyl(R,S)-2-hydroxy-4-(3',4'-dichlorophenyl)-4-oxo-butanoate] | 5.25 | 5.51 | 
4 | O=C(O)C(O)C(Cc1ccccc1)C(=O)c1ccc(Cl)c(Cl)c1 (centres unmarked) [PNU 167536, 2-hydroxy-3-benzyl-4-(3',4'-dichlorophenyl)-4-oxo-butanoic acid] | 4.21 |  | 
5 | CC(CC(=O)c1ccc(F)c(F)c1)C(=O)O (racemic) [PNU 157952, (R,S)-2-methyl-4-(3',4'-difluorophenyl)-4-oxo-butanoic acid] | 4.26 | 5.41 | 
6 | O=C(O)c1cc(=O)c2ccccc2[nH]1 [KYNA, kynurenic acid] |  |  | antagonism of the ionotropic excitatory aminoacid receptors [3]: broad spectrum antagonist; prevention of QUIN-evoked excitotoxic neuronal damage [4]: able to prevent the excitotoxic neuronal damage; action when injected in the CNS (CNS): neuroprotective agent
7 | CC(CC(=O)O)C(=O)c1ccc(Cl)c(Cl)c1 (racemic) [PNU 161243, (R,S)-3-methyl-4-(3',4'-dichlorophenyl)-4-oxo-butanoic acid] |  | 4.84 | 
8 | COC(=O)CCC(=O)c1ccc(Cl)c(Cl)c1 [PNU 158381, Methyl 4-(3',4'-dichlorophenyl)-4-oxo-butanoate] | 5.24 |  | 
9 | O=C(CC(O)C(=O)O)c1cccc(Cl)c1 (racemic) [PNU 158789, (R,S)-2-hydroxy-4-(3'-chlorophenyl)-4-oxo-butanoic acid] | 5.74 | 6.35 | 
10 | O=C(O)CCC(=O)c1ccc(F)c(F)c1 [PNU 157720, 4-(3',4'-difluorophenyl)-4-oxo-butanoic acid] | 4.74 | 5.43 | 
11 | COC(CC(=O)c1ccc(F)c(F)c1)C(=O)O (racemic) [PNU 158380, (R,S)-2-methoxy-4-(3',4'-difluorophenyl)-4-oxo-butanoic acid] | 4.37 | 4.90 | 
12 | O=C(O)c1cccnc1C(=O)O [QUIN, quinolinic acid] |  |  | neurotoxicity in neuronal cell cultures (neuronal cell cultures): neurotoxic; in vivo lesions and convulsions (CNS; in vivo): convulsions and axon sparing lesions; action when injected in the CNS (CNS): neurotoxin; agonism at the NMDA receptor [5]: highly selective agonist
13 | O=C(O)CC(C(=O)c1ccc(Cl)c(Cl)c1)c1ccccc1 (racemic) [PNU 167541, (R,S)-3-phenyl-4-(3',4'-dichlorophenyl)-4-oxo-butanoic acid] | 4.26 |  | 
14 | COC(=O)C(CC(=O)c1ccc(Cl)c(Cl)c1)Cc1ccccc1 (racemic) [PNU 167531, (R,S)-Methyl-2-benzyl-4-(3',4'-dichlorophenyl)-4-oxo-butanoate] | 5.72 |  | 
15 | C=C(CC(=O)c1ccc(Cl)c(Cl)c1)C(=O)O [PNU 158432, 2-methyliden-4-(3',4'-dichlorophenyl)-4-oxo-butanoic acid] | 4.44 |  | 
